What all share (assay): biochemical
What all share (design): KINOMEscan scanMAX competition binding, DNA-tagged kinases, qPCR read-out, percent control at 300 nM
For orientation: In qPCR the cycle at which signal appears reflects the starting amount.

Test [1] deals with BRAF(V600E) (Homo sapiens, UniProt P15056, V600E).
The target in test [2] is T1, EPHA3 (Homo sapiens, UniProt P29320).
T1 sequence (P29320 1-983): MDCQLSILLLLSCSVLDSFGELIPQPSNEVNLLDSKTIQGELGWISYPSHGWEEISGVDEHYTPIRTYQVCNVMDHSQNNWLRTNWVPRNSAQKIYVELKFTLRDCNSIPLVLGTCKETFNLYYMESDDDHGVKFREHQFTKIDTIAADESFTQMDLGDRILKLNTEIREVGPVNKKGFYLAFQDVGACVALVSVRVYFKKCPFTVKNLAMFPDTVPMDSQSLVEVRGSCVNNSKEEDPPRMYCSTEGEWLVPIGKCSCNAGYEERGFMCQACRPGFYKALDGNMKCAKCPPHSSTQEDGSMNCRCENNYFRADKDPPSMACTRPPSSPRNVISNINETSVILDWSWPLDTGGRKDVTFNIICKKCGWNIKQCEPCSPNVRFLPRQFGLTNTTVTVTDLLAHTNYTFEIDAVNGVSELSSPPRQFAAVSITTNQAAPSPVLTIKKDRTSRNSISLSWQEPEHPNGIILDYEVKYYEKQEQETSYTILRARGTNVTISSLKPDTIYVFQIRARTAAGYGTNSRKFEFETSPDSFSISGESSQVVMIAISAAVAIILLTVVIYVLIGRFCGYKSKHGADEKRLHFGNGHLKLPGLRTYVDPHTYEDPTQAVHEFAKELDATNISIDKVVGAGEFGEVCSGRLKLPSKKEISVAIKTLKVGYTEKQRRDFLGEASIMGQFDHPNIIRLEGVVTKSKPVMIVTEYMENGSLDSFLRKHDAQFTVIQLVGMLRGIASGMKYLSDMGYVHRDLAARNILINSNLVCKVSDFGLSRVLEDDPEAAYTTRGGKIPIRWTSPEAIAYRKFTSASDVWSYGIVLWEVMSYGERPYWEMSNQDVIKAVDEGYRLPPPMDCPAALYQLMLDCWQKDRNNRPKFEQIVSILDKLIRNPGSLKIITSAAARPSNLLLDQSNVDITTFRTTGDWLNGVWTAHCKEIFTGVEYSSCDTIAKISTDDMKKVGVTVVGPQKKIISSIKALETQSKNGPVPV

For test [3], the target named is T2, ITK (Homo sapiens, UniProt Q08881).
T2 sequence (Q08881 1-620): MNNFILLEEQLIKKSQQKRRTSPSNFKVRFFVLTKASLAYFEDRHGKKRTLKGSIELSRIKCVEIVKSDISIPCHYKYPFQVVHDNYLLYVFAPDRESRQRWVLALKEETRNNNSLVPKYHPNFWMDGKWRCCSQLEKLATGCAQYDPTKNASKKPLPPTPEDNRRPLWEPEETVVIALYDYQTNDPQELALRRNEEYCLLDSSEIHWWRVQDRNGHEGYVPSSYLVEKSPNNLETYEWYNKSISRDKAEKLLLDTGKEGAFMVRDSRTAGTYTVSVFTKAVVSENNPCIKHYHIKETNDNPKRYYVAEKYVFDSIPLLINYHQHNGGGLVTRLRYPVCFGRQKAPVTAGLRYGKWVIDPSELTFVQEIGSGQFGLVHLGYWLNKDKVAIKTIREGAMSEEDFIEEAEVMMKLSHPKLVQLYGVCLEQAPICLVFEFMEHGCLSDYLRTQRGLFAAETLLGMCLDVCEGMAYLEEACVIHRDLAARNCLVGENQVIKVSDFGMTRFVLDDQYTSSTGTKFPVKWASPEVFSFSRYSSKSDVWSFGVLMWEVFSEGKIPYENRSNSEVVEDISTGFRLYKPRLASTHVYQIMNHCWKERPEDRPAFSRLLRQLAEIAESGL

The target in test [4] is KIT(D816V) (Homo sapiens, UniProt P10721, D816V).
KIT(D816V), sequence (P10721 whole entry D816V): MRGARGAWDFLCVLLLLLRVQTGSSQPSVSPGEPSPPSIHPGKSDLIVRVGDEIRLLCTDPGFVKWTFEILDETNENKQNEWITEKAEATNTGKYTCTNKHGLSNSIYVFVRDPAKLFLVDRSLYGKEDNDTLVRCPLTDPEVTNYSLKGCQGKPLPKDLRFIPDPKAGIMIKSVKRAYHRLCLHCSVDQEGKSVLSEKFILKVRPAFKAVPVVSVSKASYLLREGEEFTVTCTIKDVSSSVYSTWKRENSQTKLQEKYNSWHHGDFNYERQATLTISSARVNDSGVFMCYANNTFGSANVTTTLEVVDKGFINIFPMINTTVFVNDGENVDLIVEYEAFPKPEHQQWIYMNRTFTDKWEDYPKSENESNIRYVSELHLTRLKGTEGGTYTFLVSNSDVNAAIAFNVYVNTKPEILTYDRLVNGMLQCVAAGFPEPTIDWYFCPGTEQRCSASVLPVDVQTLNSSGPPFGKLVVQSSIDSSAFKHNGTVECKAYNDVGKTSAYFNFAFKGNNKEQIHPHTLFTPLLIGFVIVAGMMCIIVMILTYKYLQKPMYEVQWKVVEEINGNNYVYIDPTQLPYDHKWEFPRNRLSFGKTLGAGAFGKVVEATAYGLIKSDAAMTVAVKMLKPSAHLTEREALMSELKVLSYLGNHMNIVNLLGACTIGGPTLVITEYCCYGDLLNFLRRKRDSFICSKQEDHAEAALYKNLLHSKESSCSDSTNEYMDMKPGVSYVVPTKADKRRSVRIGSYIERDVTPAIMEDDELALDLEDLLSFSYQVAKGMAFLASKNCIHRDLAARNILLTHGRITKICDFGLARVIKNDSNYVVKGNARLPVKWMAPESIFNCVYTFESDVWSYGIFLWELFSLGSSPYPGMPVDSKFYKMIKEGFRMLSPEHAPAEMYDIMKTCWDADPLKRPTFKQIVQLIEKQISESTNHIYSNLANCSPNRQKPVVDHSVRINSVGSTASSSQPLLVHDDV
The target in test [5] is MELK (Homo sapiens, UniProt Q14680).
MELK, sequence (Q14680 whole entry): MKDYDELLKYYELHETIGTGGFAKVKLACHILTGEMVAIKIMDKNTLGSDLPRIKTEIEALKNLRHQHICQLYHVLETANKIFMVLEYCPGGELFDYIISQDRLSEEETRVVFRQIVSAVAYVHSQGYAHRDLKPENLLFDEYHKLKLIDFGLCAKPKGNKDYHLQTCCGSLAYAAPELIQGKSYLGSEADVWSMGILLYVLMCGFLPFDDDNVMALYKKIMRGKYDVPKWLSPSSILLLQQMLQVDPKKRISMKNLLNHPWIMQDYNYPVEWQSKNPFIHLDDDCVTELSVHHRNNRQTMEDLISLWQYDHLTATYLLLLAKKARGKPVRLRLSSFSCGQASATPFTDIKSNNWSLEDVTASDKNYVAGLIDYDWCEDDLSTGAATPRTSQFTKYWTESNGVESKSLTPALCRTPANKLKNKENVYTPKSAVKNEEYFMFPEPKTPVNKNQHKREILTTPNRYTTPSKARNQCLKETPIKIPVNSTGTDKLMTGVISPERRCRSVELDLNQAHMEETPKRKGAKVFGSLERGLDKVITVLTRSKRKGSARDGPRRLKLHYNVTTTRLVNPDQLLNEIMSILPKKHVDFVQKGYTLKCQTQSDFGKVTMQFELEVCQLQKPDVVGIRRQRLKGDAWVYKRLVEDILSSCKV
Test [6] has as its target MET(M1250T) (Homo sapiens, UniProt P08581, M1250T).
Test [7] has as its target TNIK (Homo sapiens, UniProt Q9UKE5).
Test [8] has as its target TNK2 (Homo sapiens, UniProt Q07912).
Test [9] addresses EGFR(L747-E749del, A750P) (Homo sapiens, UniProt P00533, A750P/DEL747-749).
Test [10] concerns the target EGFR(L747-S752del, P753S) (Homo sapiens, UniProt P00533, DEL747-752/P753S).
The target of test [11] is EPHA4 (Homo sapiens, UniProt P54764).
EPHA4, sequence (P54764 whole entry): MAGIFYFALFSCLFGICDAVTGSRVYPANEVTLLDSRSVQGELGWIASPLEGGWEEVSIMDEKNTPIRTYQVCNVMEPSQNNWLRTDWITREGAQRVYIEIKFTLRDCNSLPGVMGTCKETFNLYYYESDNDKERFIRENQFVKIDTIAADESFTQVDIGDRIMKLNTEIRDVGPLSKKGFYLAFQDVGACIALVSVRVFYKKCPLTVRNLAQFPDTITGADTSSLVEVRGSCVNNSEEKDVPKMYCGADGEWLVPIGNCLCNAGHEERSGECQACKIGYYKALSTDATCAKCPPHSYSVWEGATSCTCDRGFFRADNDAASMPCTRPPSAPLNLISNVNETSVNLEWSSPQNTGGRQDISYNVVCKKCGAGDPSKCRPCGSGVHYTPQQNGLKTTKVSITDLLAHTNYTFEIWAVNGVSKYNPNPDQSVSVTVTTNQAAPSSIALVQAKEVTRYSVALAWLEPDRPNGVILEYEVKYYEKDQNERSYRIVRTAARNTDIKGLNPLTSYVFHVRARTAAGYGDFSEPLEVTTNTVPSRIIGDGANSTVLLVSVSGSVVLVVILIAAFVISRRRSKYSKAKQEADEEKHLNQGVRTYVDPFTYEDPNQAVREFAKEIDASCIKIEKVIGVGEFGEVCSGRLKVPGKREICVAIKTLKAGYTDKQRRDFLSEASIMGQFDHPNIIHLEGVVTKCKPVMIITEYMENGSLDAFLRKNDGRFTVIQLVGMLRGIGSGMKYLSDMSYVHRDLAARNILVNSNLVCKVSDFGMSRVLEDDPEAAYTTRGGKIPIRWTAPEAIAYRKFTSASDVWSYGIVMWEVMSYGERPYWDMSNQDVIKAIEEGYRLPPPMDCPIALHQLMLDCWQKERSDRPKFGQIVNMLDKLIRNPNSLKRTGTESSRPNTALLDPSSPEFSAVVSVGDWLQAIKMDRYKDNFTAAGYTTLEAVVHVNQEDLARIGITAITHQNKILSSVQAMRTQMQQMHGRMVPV
Test [12] deals with RIPK2 (Homo sapiens, UniProt O43353).
Where [13] appears, read: read-out: Percent control / Zanubrutinib.
The mark [14] stands for this setting: read-out: Percent control / Tirabrutinib.
Setting [15] is: read-out: Percent control / Ibrutinib.
[16] abbreviates: read-out: Percent control / Acalabrutinib.

Molecules are shown by their SMILES. Read-outs that look alike come from different tables or passages of the source.

MET(M1250T), sequence (P08581 whole entry M1250T): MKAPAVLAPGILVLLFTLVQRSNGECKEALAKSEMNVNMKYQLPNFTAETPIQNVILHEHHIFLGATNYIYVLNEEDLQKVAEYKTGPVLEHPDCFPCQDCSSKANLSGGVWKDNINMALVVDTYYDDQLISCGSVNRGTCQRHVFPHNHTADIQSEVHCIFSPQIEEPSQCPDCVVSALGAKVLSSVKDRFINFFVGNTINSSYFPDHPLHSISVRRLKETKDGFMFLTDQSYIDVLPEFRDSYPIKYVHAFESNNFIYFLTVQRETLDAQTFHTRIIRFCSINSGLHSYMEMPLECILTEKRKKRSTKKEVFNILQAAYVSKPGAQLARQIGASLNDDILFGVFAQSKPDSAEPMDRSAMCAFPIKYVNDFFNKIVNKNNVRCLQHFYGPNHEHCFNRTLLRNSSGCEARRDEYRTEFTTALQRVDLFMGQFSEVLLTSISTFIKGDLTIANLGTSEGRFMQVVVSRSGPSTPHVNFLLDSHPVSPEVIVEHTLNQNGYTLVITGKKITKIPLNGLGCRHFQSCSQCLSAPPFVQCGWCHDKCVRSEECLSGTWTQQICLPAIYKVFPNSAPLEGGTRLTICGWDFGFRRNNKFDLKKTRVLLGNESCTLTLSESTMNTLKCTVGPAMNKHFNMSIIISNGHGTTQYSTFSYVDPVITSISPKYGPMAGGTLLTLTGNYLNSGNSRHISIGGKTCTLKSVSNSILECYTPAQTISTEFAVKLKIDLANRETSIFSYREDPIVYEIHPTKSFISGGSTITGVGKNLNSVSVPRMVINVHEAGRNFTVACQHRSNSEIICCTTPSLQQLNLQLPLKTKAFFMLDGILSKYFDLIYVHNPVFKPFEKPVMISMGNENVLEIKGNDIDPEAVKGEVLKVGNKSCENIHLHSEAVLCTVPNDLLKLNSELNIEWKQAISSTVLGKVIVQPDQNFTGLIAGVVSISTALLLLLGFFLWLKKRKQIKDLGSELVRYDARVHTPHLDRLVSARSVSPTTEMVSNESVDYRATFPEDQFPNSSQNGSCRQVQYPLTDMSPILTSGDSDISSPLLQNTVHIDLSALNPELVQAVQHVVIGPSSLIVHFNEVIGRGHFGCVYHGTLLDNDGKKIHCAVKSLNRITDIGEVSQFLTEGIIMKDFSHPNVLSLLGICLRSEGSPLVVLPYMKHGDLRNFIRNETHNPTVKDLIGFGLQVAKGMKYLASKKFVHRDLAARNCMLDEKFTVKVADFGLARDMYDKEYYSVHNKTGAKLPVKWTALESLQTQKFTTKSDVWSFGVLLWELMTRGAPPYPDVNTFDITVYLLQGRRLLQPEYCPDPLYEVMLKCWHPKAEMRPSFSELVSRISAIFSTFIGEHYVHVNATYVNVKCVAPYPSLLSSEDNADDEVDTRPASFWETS
BRAF(V600E), sequence (P15056 whole entry V600E): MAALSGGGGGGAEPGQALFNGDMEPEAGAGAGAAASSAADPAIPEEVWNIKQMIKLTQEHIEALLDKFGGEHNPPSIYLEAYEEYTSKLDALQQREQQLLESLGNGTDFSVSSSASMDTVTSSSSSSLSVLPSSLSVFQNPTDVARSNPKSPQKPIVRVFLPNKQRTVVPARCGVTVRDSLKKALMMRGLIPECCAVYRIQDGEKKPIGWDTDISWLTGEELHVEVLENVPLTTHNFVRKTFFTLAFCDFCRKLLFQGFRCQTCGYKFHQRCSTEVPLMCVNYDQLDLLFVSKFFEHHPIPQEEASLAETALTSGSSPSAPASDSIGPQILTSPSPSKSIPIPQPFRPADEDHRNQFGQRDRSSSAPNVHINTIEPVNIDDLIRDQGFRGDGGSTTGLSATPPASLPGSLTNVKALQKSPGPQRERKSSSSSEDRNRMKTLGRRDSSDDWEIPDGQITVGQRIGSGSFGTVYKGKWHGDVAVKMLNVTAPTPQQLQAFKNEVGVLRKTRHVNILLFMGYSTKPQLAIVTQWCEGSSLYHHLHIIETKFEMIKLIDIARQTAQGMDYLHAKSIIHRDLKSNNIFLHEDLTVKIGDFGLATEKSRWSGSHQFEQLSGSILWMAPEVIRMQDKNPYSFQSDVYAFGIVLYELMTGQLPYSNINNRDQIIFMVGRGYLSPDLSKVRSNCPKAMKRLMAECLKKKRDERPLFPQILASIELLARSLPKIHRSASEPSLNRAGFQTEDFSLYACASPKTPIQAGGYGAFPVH

On to `C=CC(=O)N1CCC([C@@H]2CCNc3c(C(N)=O)c(-c4ccc(Oc5ccccc5)cc4)nn32)CC1` [Zanubrutinib], for which the remaining binding at 0.3 µM in [1] (setting [13]) came out at 88%; in test [2] (setting [13]), 75%; in test [3] (setting [13]) it was 97%; in test [4] (setting [13]), 98%; in test [5] (setting [13]), 59%; in test [6] (setting [13]), 100%. Further, the remaining binding at 0.3 µM in test [7] (setting [13]) was 85%; in [8] (setting [13]), 90%.
`CC#CC(=O)N1CC[C@@H](n2c(=O)n(-c3ccc(Oc4ccccc4)cc3)c3c(N)ncnc32)C1` [Tirabrutinib]: the remaining binding at 0.3 µM in test [9] (setting [14]) stood at 69%; in test [10] (setting [14]), 88%; in test [2] (setting [14]), 92%; in [11] (setting [14]), 94%; in [3] (setting [14]), 99%; in [4] (setting [14]), 93%. Further, the remaining binding at 0.3 µM in test [5] (setting [14]) came out at 82%; in [6] (setting [14]), 93%; in test [12] (setting [14]), 33%; in test [7] (setting [14]) it was 92%; in test [8] (setting [14]), 93%.
On to `C=CC(=O)N1CCC[C@@H](n2nc(-c3ccc(Oc4ccccc4)cc3)c3c(N)ncnc32)C1` [Ibrutinib], for which the remaining binding at 0.3 µM in [1] (setting [15]) was found to be 98%; in [9] (setting [15]), 10%; in test [10] (setting [15]), 12%; in [2] (setting [15]) it was 82%; in test [11] (setting [15]) it was 82%; in test [3] (setting [15]), 27%. Also, the remaining binding at 0.3 µM came to 74% in [5] (setting [15]), 6.4% in test [12] (setting [15]), 86% in test [7] (setting [15]) and 48% in [8] (setting [15]).
Turning to `CC#CC(=O)N1CCC[C@H]1c1nc(-c2ccc(C(=O)Nc3ccccn3)cc2)c2c(N)nccn12` [Acalabrutinib], the remaining binding at 0.3 µM in [1] (setting [16]) came out at 70%; in [9] (setting [16]) it was 91%; in test [10] (setting [16]), 99%; in [2] (setting [16]) it was 74%; in [11] (setting [16]), 96%; in test [3] (setting [16]), 97%. For the same molecule, the remaining binding at 0.3 µM in [4] (setting [16]) amounted to 92%; in [5] (setting [16]), 81%; in [6] (setting [16]), 93%; in test [12] (setting [16]), 79%; in [7] (setting [16]), 79%.

(Values after paper PMC10004634 (PLOS ONE, 2023).)
